Results reported in ChEMBL document CHEMBL2203069, “Synthesis and structure-activity relationships of a novel series of pyrimidines as potent inhibitors of TBK1/IKKε kinases” (Bioorg Med Chem Lett, 2012).
The source made the active and inactive calls. The rule behind the calls is not given here.

Columns and labels:
[1] = target: T1, Serine/threonine-protein kinase TBK1 (Mus musculus, UniProt Q9WUN2); assay: Inhibition of TBK1-mediated RANTES release in LPS-stimulated mouse RAW264.7 cells compound incubated for 30 mins prior LPS challenge measured after 6 hrs by ELISA; assay type: cell-based; settings: read-out: IC50
T1 sequence (Q9WUN2 whole entry): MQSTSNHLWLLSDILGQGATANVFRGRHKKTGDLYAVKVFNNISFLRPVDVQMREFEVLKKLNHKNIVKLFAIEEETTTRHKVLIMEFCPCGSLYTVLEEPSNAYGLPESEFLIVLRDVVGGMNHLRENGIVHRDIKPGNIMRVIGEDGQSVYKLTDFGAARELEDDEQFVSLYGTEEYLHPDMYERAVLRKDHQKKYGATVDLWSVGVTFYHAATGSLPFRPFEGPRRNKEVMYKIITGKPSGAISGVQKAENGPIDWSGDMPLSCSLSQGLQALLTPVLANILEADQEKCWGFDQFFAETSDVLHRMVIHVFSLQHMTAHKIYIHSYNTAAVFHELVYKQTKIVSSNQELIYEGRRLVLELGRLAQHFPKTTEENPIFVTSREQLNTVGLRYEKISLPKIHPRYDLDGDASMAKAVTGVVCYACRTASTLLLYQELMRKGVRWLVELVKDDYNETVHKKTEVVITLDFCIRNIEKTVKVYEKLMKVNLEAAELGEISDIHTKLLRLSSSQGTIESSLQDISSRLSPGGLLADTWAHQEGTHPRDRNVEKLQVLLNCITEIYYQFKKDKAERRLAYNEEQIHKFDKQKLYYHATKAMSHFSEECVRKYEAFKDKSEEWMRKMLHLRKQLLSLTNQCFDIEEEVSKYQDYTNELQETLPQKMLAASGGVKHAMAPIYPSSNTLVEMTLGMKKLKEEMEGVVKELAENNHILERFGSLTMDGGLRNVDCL

[2] = Permeability from apical to basolateral side of human Caco2 cells; assay type: ADME, cell-based; settings: Caco-2, read-out: permeability
[3] = target: MAP/microtubule affinity-regulating kinase 3 (Homo sapiens, UniProt P27448); assay: Inhibition of MARK3
[4] = target: T2, Inhibitor of nuclear factor kappa-B kinase subunit epsilon (Homo sapiens, UniProt Q14164); assay: Inhibition of IKKepsilon
T2 sequence (Q14164 whole entry): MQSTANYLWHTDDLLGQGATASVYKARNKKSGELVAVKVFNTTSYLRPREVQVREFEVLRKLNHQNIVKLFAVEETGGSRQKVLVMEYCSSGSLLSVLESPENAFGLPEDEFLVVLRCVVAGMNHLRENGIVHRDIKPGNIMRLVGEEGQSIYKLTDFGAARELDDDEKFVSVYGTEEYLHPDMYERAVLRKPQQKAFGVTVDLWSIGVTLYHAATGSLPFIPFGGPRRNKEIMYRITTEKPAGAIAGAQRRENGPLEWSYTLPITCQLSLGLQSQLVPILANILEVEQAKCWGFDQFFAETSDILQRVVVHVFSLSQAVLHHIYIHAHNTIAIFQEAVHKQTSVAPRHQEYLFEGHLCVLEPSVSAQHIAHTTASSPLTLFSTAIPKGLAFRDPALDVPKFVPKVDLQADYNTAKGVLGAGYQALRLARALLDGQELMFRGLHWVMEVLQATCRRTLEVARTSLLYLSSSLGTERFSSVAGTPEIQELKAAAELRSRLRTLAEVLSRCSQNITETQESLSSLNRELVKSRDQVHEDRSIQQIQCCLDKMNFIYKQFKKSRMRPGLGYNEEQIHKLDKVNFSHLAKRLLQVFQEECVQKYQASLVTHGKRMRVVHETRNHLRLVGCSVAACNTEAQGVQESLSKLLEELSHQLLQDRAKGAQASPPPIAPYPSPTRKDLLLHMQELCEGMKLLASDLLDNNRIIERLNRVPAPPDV

[5] = Inhibition of AMPK
[6] = Metabolic stability in human liver microsomes assessed as compound turnover after 40 mins; assay type: ADME, Microsome; settings: read-out: Drug metabolism
Aurora kinase B = Aurora kinase B (Homo sapiens, UniProt Q96GD4); assay: Inhibition of Aurora B
[7] = target: T3, Serine/threonine-protein kinase TBK1 (Homo sapiens, UniProt Q9UHD2); assay: Inhibition of TBK1 by radiometry
T3 sequence (Q9UHD2 whole entry): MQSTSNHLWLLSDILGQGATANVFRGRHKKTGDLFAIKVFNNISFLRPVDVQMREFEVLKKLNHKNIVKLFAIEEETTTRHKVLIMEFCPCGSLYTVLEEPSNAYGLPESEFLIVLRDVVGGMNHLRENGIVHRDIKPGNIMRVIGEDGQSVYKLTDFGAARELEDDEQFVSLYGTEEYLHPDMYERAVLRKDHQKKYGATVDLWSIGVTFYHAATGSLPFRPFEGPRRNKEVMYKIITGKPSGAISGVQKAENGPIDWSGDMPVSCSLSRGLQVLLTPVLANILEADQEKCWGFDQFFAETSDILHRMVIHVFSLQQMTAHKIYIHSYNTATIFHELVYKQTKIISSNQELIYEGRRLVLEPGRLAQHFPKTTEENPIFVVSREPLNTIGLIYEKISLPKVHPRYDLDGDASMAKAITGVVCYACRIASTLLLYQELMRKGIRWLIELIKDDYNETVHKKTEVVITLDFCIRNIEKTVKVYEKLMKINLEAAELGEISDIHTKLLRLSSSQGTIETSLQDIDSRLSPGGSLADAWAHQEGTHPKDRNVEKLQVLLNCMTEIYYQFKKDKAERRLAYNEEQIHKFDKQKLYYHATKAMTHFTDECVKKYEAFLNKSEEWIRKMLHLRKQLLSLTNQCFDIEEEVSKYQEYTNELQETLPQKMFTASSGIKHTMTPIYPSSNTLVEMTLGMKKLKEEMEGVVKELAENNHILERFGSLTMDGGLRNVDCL

[8] = Inhibition of VEGFR
[9] = Efflux ratio of permeability from basolateral to apical side to apical to basolateral side in human Caco2 cells; assay type: ADME, cell-based; settings: Caco-2
[10] = target: T4, Serine/threonine-protein kinase BRSK2 (Homo sapiens, UniProt Q8IWQ3); assay: Inhibition of BRSK2
T4 sequence (Q8IWQ3 whole entry): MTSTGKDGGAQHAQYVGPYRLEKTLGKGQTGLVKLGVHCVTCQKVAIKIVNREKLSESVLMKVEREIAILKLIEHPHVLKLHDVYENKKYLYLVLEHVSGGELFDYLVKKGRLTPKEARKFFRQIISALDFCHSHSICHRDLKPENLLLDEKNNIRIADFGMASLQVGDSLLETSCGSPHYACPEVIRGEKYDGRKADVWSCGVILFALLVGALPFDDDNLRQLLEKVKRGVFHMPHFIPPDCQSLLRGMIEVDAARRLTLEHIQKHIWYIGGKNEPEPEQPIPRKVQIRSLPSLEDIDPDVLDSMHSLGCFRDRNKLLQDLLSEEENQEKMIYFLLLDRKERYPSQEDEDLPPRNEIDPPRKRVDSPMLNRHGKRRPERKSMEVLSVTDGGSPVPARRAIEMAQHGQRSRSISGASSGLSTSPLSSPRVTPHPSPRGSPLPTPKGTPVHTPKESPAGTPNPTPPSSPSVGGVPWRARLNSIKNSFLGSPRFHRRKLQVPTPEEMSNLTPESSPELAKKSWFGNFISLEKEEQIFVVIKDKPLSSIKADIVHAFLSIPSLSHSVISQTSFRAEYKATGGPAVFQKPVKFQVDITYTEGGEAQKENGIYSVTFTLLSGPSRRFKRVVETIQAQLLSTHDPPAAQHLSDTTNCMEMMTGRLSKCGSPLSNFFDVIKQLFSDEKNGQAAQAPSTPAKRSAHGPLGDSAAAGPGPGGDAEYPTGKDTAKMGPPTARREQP

[11] = Metabolic stability in mouse liver microsomes assessed as compound turnover after 30 mins; assay type: ADME, Microsome; settings: read-out: Drug metabolism
[12] = target: MAP kinase-interacting serine/threonine-protein kinase 1 (Homo sapiens, UniProt Q9BUB5); assay: Inhibition of MNK1
[13] = target: Cyclin-dependent kinase 2 (Homo sapiens, UniProt P24941); assay: Inhibition of CDK2
[14] = Volume of distribution in CD-1 mouse at 1 mg/kg, iv; assay type: ADME, organism-based; parameters: dose 1 mg/kg, route intravenous; settings: in vivo
Mus musculus [15] = assay: Antiinflammatory activity in mouse assessed as inhibition of LPS-induced IFN-beta production at 15 mg/kg, ip administered 30 mins prior LPS challenge measured 1 hr post challenge by ELISA; assay type: functional, organism-based; parameters: dose 15 mg/kg
[16] = Half life in CD-1 mouse at 5 mg/kg, po; assay type: ADME, organism-based; parameters: dose 5 mg/kg, route oral; settings: in vivo
[17] = Clearance in CD-1 mouse at 1 mg/kg, iv; assay type: ADME, organism-based; parameters: dose 1 mg/kg, route intravenous; settings: in vivo
[18] = Half life in CD-1 mouse at 1 mg/kg, iv; assay type: ADME, organism-based; parameters: dose 1 mg/kg, route intravenous; settings: in vivo
Mus musculus [19] = assay: Toxicity in mouse at >= 20 mg/kg, ip; assay type: organism-based; parameters: dose 20 mg/kg, route intraperitoneal; settings: in vivo
[20] = Oral bioavailability in CD-1 mouse at 5 mg/kg; assay type: ADME, organism-based; settings: in vivo

Chain of MAP kinase-interacting serine/threonine-protein kinase 1 (Q9BUB5 whole entry): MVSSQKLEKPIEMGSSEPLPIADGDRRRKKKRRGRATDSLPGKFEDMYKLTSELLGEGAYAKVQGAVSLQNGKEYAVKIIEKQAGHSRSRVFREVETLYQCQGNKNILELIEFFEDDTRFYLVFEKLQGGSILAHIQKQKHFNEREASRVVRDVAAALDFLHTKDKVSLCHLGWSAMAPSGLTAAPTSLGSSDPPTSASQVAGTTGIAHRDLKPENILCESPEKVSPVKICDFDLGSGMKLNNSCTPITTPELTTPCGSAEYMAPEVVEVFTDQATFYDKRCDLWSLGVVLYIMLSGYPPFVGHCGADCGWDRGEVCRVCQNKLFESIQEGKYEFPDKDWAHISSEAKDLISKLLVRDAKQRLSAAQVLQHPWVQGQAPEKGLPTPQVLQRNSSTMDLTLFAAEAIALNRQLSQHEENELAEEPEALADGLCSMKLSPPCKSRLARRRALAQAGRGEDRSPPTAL
Chain of Aurora kinase B (Q96GD4 whole entry): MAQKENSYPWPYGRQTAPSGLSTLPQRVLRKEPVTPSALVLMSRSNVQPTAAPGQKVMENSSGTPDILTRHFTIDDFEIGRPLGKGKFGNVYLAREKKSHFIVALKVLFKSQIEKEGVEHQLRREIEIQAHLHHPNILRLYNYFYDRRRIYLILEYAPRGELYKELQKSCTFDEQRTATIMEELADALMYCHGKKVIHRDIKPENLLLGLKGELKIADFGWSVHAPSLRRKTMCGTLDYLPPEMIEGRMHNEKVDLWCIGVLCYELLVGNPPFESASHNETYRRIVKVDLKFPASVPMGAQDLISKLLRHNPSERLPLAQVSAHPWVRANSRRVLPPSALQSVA
Chain of MAP/microtubule affinity-regulating kinase 3 (P27448 whole entry): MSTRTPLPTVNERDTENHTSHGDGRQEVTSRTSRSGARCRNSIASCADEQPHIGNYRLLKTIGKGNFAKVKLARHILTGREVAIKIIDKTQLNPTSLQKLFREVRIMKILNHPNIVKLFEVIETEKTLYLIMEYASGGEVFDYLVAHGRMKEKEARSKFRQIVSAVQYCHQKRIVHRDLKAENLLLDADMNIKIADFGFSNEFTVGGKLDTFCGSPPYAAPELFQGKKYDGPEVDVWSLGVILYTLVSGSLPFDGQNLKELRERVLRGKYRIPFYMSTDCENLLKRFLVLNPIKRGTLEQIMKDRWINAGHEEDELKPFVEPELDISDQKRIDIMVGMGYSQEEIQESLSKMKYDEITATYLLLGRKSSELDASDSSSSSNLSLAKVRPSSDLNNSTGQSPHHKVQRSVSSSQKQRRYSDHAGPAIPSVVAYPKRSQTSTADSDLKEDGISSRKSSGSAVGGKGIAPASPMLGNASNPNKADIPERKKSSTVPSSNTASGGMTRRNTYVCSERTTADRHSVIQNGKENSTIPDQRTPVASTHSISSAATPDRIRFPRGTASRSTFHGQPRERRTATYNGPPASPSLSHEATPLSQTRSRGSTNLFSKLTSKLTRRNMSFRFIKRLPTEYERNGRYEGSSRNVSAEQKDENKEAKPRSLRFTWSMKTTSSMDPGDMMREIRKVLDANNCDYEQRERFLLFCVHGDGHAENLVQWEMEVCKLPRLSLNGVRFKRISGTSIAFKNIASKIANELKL

SMILES | IC50 [1] [nM] | Papp A→B [2] [×10⁻⁶ cm/s] | IC50 [3] [nM] | IC50 [4] [nM] | IC50 [5] [nM] | metabolised at 40 min [6] [%] | IC50 (Aurora kinase B) [nM] | IC50 [7] [nM] | IC50 [8] [nM] | efflux ratio [9] | IC50 [10] [nM] | metabolised at 0.5 h [11] [%] | IC50 [12] [µM] | IC50 [13] [nM] | other results
O=C(NCCCNc1nc(Nc2ccc(N3CCOCC3)cc2)ncc1C1CC1)C1CCC1 | 58 | 34 | 12 | 30 | 550 | 18 | 700 | 6 | 3600 | 1 | 1900 | 53 | 19 | 630 | –
Cn1cc(Nc2ncc(C3CC3)c(NCCCNC(=O)C3CCC3)n2)cn1 | 170 | 7.4 | 20 | 100 | 1800 | 0 | 190 | 8 | 1400 | 8 | 3700 | 21 | 20 | 110 | Vd [14]: 1.79 L/kg; inhibition (Mus musculus [15]): Active; half-life [16]: 75 min; clearance [17]: 79 mL/min/kg; half-life [18]: 27 min; Activity (Mus musculus [19]): Toxic; bioavailability [20]: 25%
